Holding throughout (experiment): biochemical
Common to all, as to parameters: scanMAX competition binding; kinase recovered on immobilized ligand quantified by qPCR, per cent of control
What all share (settings): read-out: APA (POC)
In general terms: Quantitative PCR measures a nucleic acid by following its amplification.

Test [1] has as its target AURKA (Homo sapiens, UniProt O14965). On the procedure:
(§1) The binding affinities of APA and NAPA were evaluated in the scanMAX^sm Kinase Assay Panel (DiscoverX) at a final concentration of 10 µM. The compounds were tested for steric or allosteric binding to kinases in solution. The kinase was captured from the solution through an immobilized kinase-specific ligand and the kinase recovery was quantified. The amount of recovered kinase in the presence or absence of APA or NAPA was measured by quantitative PCR compared with the kinase capture in absence of the compound. Any compound reducing the binding affinity of a kinase to the respective immobilized ligand was scored as a potential hit, and the binding affinity of the compound toward a kinase is interpreted as the difference between the kinase recovery in the absence and presence of the compound. The inhibitory binding constants (Kd) of APA and NAPA to AURKA were evaluated in a KdELECT Kinase Assay (DiscoverX). […] Data acquisition followed the same methodology as for the scanMAX^sm Kinase Assay Panel. 6 Supplementary Figure 4. Kinome inhibition profiles of APA and its NAT2 metabolite NAPA identifies preferential APA kinase targets and differential binding to AURKA a The human kinome was assessed for binding affinity to APA and NAPA at 10 µM concentration (468 kinases in the scanMAX Kinase Assay Panel, DiscoverX). The family stratification of kinases is shown as a cladogram. Circles visualize the binding affinity of NAPA and APA towards each kinase with a higher intensity of blue corresponding to a higher binding affinity. […] One single data point from one experiment at a concentration 18.5 µM of APA was excluded as an outlier. c Thermal shift assay for human recombinant AURKA in the presence of APA and the selective inhibitor S1451. Melting temperatures were obtained by calculating the first derivative of the tryptophan fluorescence ratio at 350 nm and 330 nm and are shown for AURKA in the presence of S1451 (blue) and APA (yellow). Structural similarities between APA and kinase inhibitors[27] prompted investigation of protein kinases as mediators of APA toxicity. […] To enrich for kinase interactions that could explain the preferential killing of slow NAT2 cells, we compared the binding affinity of each kinase with APA and NAPA, selected 44 targets with preferential binding to APA and excluded kinases non-essential for cell survival and those not expressed in CRC cells (Supplementary Fig. 4A, Supplementary Table 4). […] The growth inhibition of RKO and DLD-1 following siRNA-mediated AURKA knockdown (Figs. 3c, d) reflected the relative efficiency of protein downregulation (Supplementary Fig. 5C, D). […] (Supplementary Fig. 4C). AURKA regulates cell cycle progression through association with other centrosome and spindle-associated proteins. Its activation requires auto-phosphorylation at Thr288 and ensures spindle pole integrity, centrosome duplication as well as adequate chromosomal alignment and segregation, while its inhibition leads to multipolar spindles with acentrosomal poles[28],[31]. […] S1451 reduced the fraction of pAURKA levels by >90% regardless of NAT2 expression (Fig. 3f and Su

For test [2], the target named is GRK4 (Homo sapiens, UniProt P32298). On the procedure:
as §1

Test [3] concerns the target FLT1 (Homo sapiens, UniProt P17948). The method, then: as §1
The target of test [4] is MINK1 (Homo sapiens, UniProt Q8N4C8). On the procedure:
as §1

Test [5] deals with CDKL2 (Homo sapiens, UniProt Q92772). The method, then:
as §1

Test [6] addresses CAMK2A (Homo sapiens, UniProt Q9UQM7). The method, then: as §1
Test [7] concerns the target MKNK1 (Homo sapiens, UniProt Q9BUB5). The method, then: as §1
Test [8] deals with HIPK4 (Homo sapiens, UniProt Q8NE63). On the procedure: as §1
The target in test [9] is EIF2AK4 (Homo sapiens, UniProt Q9P2K8). The method, then: as §1
The target in test [10] is TNIK (Homo sapiens, UniProt Q9UKE5). The method, then: as §1
The target of test [11] is MKNK2 (Homo sapiens, UniProt Q9HBH9). The method, then:
as §1

Test [12] has as its target RET (Homo sapiens, UniProt P07949). The method, then: as §1
The target in test [13] is CLK1 (Homo sapiens, UniProt P49759). On the procedure:
as §1

Test [14] addresses PDGFRA (Homo sapiens, UniProt P16234). The method, then:
as §1

Test [15] addresses CSF1R (Homo sapiens, UniProt P07333). On the procedure:
as §1

PDGFRA, sequence (P16234 whole entry): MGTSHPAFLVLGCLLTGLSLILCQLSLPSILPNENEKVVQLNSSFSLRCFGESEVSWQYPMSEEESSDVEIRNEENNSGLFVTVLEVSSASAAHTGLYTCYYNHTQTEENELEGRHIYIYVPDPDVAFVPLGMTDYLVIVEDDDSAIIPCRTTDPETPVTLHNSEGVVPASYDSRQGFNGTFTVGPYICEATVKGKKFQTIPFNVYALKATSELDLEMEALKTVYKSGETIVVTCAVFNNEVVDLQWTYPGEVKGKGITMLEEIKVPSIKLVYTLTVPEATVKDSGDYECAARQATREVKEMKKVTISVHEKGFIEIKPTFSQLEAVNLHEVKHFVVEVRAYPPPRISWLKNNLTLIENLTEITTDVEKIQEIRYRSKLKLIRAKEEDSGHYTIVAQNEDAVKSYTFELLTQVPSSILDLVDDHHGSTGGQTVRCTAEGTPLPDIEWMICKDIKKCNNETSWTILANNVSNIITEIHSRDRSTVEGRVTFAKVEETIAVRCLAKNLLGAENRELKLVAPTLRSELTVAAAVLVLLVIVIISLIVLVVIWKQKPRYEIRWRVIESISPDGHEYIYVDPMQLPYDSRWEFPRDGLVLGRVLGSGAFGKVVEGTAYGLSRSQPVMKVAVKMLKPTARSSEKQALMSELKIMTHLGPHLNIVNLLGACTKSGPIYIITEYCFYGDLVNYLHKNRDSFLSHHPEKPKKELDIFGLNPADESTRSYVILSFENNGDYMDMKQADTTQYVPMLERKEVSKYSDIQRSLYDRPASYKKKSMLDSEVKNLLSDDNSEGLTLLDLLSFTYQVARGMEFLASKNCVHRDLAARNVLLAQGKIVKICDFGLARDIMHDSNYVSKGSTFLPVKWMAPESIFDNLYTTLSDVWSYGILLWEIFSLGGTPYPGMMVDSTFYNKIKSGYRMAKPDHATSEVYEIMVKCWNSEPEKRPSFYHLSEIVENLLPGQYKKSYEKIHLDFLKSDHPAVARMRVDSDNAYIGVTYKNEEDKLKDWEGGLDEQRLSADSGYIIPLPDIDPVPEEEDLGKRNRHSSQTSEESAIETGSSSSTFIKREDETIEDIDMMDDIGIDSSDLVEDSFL
GRK4, sequence (P32298 whole entry): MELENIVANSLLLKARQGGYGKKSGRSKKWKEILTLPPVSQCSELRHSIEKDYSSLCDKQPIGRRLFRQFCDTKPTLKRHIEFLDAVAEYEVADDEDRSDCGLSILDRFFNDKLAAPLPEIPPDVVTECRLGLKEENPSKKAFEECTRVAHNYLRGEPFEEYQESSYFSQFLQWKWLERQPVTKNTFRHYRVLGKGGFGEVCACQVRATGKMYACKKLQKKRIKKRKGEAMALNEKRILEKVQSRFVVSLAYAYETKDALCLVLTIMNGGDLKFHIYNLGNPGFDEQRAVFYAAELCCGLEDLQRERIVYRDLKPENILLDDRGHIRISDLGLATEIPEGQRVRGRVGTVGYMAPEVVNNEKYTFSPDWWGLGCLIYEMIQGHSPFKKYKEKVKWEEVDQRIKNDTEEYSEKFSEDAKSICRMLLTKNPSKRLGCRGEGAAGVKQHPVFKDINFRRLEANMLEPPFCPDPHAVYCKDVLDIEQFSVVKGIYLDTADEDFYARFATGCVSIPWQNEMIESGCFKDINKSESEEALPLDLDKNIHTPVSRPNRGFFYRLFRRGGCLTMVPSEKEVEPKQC
MINK1, sequence (Q8N4C8 whole entry): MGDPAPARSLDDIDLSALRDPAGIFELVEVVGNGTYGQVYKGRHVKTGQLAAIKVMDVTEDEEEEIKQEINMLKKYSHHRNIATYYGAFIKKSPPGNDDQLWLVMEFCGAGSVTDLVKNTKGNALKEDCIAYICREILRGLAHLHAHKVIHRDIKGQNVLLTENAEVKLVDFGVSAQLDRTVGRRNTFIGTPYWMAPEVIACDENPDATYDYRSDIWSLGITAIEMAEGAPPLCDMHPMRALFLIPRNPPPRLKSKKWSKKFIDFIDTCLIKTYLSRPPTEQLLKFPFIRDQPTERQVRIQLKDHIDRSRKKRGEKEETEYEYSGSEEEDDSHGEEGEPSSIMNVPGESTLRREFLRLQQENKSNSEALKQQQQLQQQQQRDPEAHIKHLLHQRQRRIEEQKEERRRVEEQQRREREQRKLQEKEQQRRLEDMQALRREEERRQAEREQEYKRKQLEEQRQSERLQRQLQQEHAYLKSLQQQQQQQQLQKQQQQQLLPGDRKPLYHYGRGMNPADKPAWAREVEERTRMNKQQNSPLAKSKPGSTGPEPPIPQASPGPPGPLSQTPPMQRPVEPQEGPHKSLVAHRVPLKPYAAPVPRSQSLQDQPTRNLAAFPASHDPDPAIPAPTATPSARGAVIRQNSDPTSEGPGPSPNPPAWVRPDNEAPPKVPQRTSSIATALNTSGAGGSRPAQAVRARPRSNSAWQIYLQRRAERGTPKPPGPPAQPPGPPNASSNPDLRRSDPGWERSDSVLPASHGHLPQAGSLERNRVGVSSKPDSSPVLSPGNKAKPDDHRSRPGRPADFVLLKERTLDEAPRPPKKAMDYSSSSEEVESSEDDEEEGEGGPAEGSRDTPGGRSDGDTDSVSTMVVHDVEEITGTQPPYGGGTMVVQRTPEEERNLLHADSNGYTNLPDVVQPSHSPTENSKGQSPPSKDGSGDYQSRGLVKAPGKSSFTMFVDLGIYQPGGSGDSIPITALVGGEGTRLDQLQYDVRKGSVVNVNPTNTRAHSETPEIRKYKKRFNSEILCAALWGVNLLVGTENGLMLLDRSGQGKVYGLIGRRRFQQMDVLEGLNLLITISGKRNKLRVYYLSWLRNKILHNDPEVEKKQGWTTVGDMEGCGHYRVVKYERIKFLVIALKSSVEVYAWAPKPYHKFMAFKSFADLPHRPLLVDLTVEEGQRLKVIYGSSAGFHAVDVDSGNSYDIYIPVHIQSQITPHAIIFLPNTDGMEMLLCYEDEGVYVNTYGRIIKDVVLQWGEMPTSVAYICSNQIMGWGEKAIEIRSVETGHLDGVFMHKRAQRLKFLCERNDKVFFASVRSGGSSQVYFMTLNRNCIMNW
AURKA, sequence (O14965 whole entry): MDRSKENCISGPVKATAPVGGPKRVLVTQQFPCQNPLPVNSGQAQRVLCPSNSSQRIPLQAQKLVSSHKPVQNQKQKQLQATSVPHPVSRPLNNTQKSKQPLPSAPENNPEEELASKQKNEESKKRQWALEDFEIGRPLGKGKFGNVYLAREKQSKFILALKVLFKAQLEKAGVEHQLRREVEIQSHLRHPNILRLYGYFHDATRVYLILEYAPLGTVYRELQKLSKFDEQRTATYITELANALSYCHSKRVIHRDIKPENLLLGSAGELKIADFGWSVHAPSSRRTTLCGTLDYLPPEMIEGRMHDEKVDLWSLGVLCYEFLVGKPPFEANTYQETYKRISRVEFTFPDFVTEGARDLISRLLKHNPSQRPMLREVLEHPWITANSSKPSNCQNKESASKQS
RET, sequence (P07949 whole entry): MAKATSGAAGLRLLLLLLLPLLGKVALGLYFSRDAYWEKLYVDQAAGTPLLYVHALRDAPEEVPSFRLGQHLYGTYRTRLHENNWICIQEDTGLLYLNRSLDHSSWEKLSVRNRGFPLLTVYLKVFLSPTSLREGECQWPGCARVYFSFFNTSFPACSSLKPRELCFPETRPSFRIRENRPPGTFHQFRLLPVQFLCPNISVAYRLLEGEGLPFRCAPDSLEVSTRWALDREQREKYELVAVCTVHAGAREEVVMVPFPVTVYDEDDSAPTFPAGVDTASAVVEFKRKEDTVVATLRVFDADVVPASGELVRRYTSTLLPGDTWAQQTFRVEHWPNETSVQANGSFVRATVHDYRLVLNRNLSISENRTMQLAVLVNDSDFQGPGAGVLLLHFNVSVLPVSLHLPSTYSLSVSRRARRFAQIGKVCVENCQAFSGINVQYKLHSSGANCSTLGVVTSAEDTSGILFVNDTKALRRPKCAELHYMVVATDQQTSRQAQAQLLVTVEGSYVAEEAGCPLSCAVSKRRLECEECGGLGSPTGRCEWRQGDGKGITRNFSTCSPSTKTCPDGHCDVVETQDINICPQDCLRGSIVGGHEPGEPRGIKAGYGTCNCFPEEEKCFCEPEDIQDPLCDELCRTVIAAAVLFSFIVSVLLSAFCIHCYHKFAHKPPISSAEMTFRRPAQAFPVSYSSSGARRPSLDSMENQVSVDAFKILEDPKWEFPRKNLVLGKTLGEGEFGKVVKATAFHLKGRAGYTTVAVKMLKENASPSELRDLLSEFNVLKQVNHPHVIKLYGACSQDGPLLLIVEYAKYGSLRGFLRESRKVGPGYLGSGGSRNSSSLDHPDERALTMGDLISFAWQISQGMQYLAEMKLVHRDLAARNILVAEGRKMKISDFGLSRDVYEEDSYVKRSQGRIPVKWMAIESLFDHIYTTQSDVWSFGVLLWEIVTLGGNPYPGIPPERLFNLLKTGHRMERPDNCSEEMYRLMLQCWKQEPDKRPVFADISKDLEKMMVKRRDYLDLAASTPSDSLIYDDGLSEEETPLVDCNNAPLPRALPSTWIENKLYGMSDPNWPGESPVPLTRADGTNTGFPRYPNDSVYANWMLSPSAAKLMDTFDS
MKNK1, sequence (Q9BUB5 whole entry): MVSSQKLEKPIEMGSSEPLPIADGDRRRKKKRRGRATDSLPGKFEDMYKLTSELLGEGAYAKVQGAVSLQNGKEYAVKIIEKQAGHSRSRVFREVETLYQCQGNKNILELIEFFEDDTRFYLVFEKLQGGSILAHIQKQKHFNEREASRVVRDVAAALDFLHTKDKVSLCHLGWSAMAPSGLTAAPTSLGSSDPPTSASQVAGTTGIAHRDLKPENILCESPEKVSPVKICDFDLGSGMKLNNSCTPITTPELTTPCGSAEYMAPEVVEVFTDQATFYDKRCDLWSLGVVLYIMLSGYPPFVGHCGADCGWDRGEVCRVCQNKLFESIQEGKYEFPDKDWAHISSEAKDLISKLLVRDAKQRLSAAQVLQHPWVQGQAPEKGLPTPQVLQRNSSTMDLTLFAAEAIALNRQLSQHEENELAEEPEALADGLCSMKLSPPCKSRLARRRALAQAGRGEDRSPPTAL

On to `COc1cc(Nc2cncc(-c3ccc(N)cc3)n2)cc(OC)c1OC` [APA, 6-(4-aminophenyl)-N-(3,4,5-trimethoxyphenyl)pyrazin-2-amine], for which the remaining binding at 10 µM in [1] is 53%; in test [2], 15%; in test [3] it was 36%; in test [4] it was 24%; in [5], 42%; in [6] it was 59%. Moreover, the remaining binding at 10 µM is 37% in [7]; 10% in [8]; 38% in test [9]; 39% in test [10]; 26% in test [11]; 24% in test [12]. The results for the remaining binding at 10 µM in [13], in test [14] and in test [15] were 25%, 3.4% and 3.9%, respectively.

These data come from article PMC7066191, “Exploiting loss of heterozygosity for allele-selective colorectal cancer chemotherapy” (Nature Communications, 2020).
